Where two headings read alike, the source gives them in different places.
Experiments:
normal and tumor cells = test: Cell proliferation assays (alamarBlue, crystal violet), results stated in words; assay type: cell-based, human; conditions: summary of Tables 5-7
Description: (§1) Cells growing exponentially were transferred to 384-well flat bottom tissue culture plates. All cell types were plated at a density of 500 cells per well in 25 μL of complete medium (RPMI 1640+10% fetal bovine serum+antibiotics/antimycotics). After 24 hours (day 0), 25 μL of complete medium containing the compounds over the dose range of 10^−3 to 10^−10 M were added in triplicate. Drug exposure time was 120 hours (day 5), after which growth inhibition was assayed. 5 μL of the redox indicator, alamarBlue, was added to each well (10% v/v). After 4 hours incubation at 37° C., fluorescence was monitored at 535 nm excitation and 595 nm emission.
The data in both Tables 5 and 6 indicate that most compounds are active as phosphoramidates and nucleosides. […] Cytotoxicity results with the nucleosides, especially BVdU, NB1020™ (ClVdU) and NB1024™, are surprising since the literature teaches that 5-substituted compounds like BVdU are not efficiently monophosphorylated by human cells unless they express viral thymidine kinase. See, Balzarini, J. et al. (1985) and De Clerq, E. et al. (1997). These authors have proposed that once phosphorylated by the herpesvirus-encoded TK, the 5-substituted nucleotide derivative can bind to the TS enzyme and inactivate it. […] Alternatively, some tumor cells may have an unusually high amount, or form the normal TK enzyme (Suki, S. et al. (1995); and Romain, S. et al. (1995)), leading to a low, but sufficient activation of nucleosides to their corresponding monophosphates.

MCF7TDX [1] = test: AlamarBlue cell proliferation assay; assay type: cell-based, human; conditions: 120 hours drug exposure
Description: as §1
(§2) Numbering in Tables 5 and 6 refer to the structures, shown infra. Results from testing using the alamarBlue assay are shown in Table 5, and results from crystal violet based assays are shown in Table 6. MCF7-TDX was derived from MCF7 breast tumor cells via selection in cell culture in the presence of Tomudex, a direct inhibitor of TS. Such selection often results in high intracellular levels of TS (Freemantle, S. J. et al. (1995)). Similarly, H630R10 is a 5FU (fluoropyrimidine) resistant colon cancer epithelial cell line derived from H630 colon cancer cells. See, Copur, S. et al. (1995). HT1080, #12, is a fibrosarcoma tumor cell line that expresses high levels of TS via a transgene introduced into HT1080 tumor cells. […]

HT1080 #12 = test: Crystal violet cell proliferation inhibition assay; assay type: cell-based; conditions: crystal violet procedure, Table 7; high TS; read-out: Cytotoxic Activity, TS HT1080 #12
Source text: (§3) Numbering in Tables 5 and 6 refer to the structures, shown infra. Results from testing using the alamarBlue assay are shown in Table 5, and results from crystal violet based assays are shown in Table 6. MCF7-TDX was derived from MCF7 breast tumor cells via selection in cell culture in the presence of Tomudex, a direct inhibitor of TS. Such selection often results in high intracellular levels of TS (Freemantle, S. J. et al. (1995)). Similarly, H630R10 is a 5FU (fluoropyrimidine) resistant colon cancer epithelial cell line derived from H630 colon cancer cells. See, Copur, S. et al. (1995). HT1080, #12, is a fibrosarcoma tumor cell line that expresses high levels of TS via a transgene introduced into HT1080 tumor cells. Normal cell lines used in these assays include CCD18co (normal colon epithelium) and Det551 (normal skin).

CCd18co = test: Crystal violet cell proliferation inhibition assay; assay type: cell-based, human
Source text: as §3

Det551 = test: Crystal violet cell proliferation inhibition assay; assay type: cell-based, human
Source text: as §3

MCF7TDX [2] = test: Crystal violet cell proliferation inhibition assay; conditions: read-out: Cytotoxic Activity, MCF7TDX
Description: The ability of the test compounds to block proliferation of cells was determined by the crystal violet procedure.
Compounds were dissolved in dimethyl sulfoxide to a concentration of 1M. They were further diluted as necessary into DMEM cell culture medium, and subsequently into the first wells of the 96-well microtiter plate. Each concentration was tested in triplicate on the target cell line. Compound concentrations from 1 μM to 3000 μM were tested. Cells were incubated with compound for 72 hours, the plates were washed, and the cells fixed with methanol and stained with crystal violet as described in Sugarman, B. J. et al. (1985); and Antelman, D. et al. (1995).
The ability of each isolated compound to block cell proliferation was then determined by the crystal violet procedure.
The first two cell lines, TS HT1080 #12 and MCF7TDX express high levels of TS, while the other two, CCD18co and Det551, are normal cells.

H630R10 [3] = test: AlamarBlue cell proliferation assay; assay type: cell-based, human; conditions: 120 hours drug exposure
Description: as §1, §2

H630R10 [4] = test: Amount of nucleoside and monophosphate in cells (HPLC of lysates); assay type: cell-based, human; conditions: 100 μm BVdU, 2 days treatment
Description: (§4) Cells were incubated in complete media with 100 μm BVdU.

MCF7TDX [5] = test: as above; assay type: cell-based, human; conditions: 100 μm BVdU, 2 days treatment
Description: as §4

MCF7 = test: as above; assay type: cell-based, human; conditions: 100 μm BVdU, 2 days treatment
Description: as §4

[6] = Crystal violet cell proliferation inhibition assay; assay type: cell-based, human; conditions: human, crystal violet procedure, Table 7, normal cells
Source text: as §3

[7] = crystal violet procedure, Table 7, normal cells, read-out: Cytotoxic Activity, CCD18co
[8] = crystal violet procedure, Table 7, normal cells, read-out: Cytotoxic Activity, Det551
[9] = crystal violet procedure, Table 7, high TS

| Molecule | cytotoxic / growth inhibiting activity in words (normal and tumor cells) | IC50 (HT1080 #12) [µM] | IC50 (CCd18co; [7]) [µM] | IC50 (Det551; [8]) [µM] | IC50 (MCF7TDX [2]; [9]) [µM] | other results |
| --- | --- | --- | --- | --- | --- | --- |
| O=c1ccn(C2CC(O)C(CO)O2)c(=O)[nH]1 (centres unmarked) [NB1026] | little detectable activity | – | – | – | – | – |
| 5-(2-Bromovinyl)-2′-Deoxyuridine Phenyl N-Methoxy-L-alaninyl Phosphoramidate [NB1011] | – | 4.3 | 461 | 263 | 4.2 | IC50 (MCF7TDX [1]): 2 µM; IC50 (CCd18co; crystal violet, 72 hours, normal colon epithelium, read-out: IC50 CCD18co): 408 µM; IC50 (Det551; crystal violet, 72 hours, normal skin, read-out: IC50 Det551): 356 µM |
| COC(=O)C(C)NP(=O)(OCC1OC(n2ccc(=O)[nH]c2=O)CC1O)Oc1ccccc1 (centres unmarked) [NB1025] | active | – | – | – | – | IC50 (H630R10 [3]): 192 µM |
| O=c1[nH]c(=O)n([C@H]2C[C@H](O)[C@@H](CO)O2)cc1/C=C/C=C\Br (single isomer, unassigned; isomer 1) [NB1024 Isomer 1, 5-(4-Bromo-1E,3Z-butadienyl)-2′-dexoyuridine] | significantly greater growth inhibiting activity | 10.1 | > 300 | – | 9.8 | – |
| O=c1[nH]c(=O)n([C@H]2C[C@H](O)[C@@H](CO)O2)cc1/C=C/C=C/Br (single isomer, unassigned; isomer 2) [NB1024 Isomer 2, 5-(4-Bromo-1E,3E-butadienyl)-2′-dexoyuridine] | – | > 300 | – | > 300 | > 300 | – |
| O=c1[nH]c(=O)n([C@H]2C[C@H](O)[C@@H](CO)O2)cc1/C=C/Br [BVDU, (E)-5-(2-Bromovinyl)-2′-deoxyuridine] | – | – | – | – | – | BVdU level in cell lysate (H630R10 [4]): 26.3 HPLC peak area at 300 nm; BvdUMP/(BVdUMP + BVdU) × 100 (H630R10 [4]): <4; BVdU level in cell lysate (MCF7TDX [5]): 39.0 HPLC peak area at 300 nm; BvdUMP/(BVdUMP + BVdU) × 100 (MCF7TDX [5]): 21.2; BVdU level in cell lysate (MCF7): 90.8 HPLC peak area at 300 nm; BvdUMP/(BVdUMP + BVdU) × 100 (MCF7): 44.2; IC50 at 72 h ([6]; CCD18co cells (normal colon epithelium), read-out: Cytotoxic Activity, CCD18co): > 1000 µM; IC50 at 72 h ([6]; Det551 cells (normal skin), read-out: Cytotoxic Activity, Det551): > 1000 µM; IC50 (MCF7TDX [2]; Homo sapiens): < 0.8 µM |

Source: patent publication US6683061B1, “Enzyme catalyzed therapeutic activation” (NewBiotics, Inc., priority 1999, dated 2004)
